Measured values reported in PubChem BioAssay AID2060627 (Molecular Pharmacology Branch, DTP, NCI, 2025).
“And” between values parts separate entries of the source, which are not always exact repeats. Identical values can stand only once.

Test system: 156681-154-R-J1-PDC complex spheroid viability
Test: Anticancer human tumor 156681-154-R-J1-PDC patient-derived melanoma cell line growth inhibition [CLK]
Conditions: for viability, T/C: stronger effect = lower value
In short: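 Patient-derived tumor cells grown as complex spheroids with HUVEC endothelial cells and mesenchymal stem cells, treated with drug combinations. Concentrations descend in half-log steps from near clinical Cmax, or from 10 microM if Cmax unknown.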
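Further: spheroids exposed to the agents for seven days.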
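Wherever viability, T/C is given: 100% = DMSO vehicle control viability.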

Work on `CC(C)CC(NC(=O)C(Cc1ccccc1)NC(=O)c1cnccn1)B(O)O` (stereo unspecified) + CNC(=O)c1ccc(Nc2nc(OC3CCCC3)c3c(-c4ccc5nc(C)oc5c4)c[nH]c3n2)c(OC)c1 yielded an IC50 (curve of first compound, second compound 0.0316 µM) of under 0.949 nM, an IC50 (curve of first compound, second compound 0.1 µM) of under 0.949 nM and an IC50 (curve of first compound, second compound 0.316 µM) of under 0.949 nM. For the same compound, the IC50 (curve of first compound, second compound 1 µM) was under 0.949 nM, the IC50 (curve of first compound, second compound 3.16 µM) was under 0.949 nM and the IC50 (curve of first compound, second compound 10 µM) was under 0.949 nM. The viability, T/C (second compound 0.0316 µM, first compound 0.000949 µM) was 9.11%, the viability, T/C (second compound 0.0316 µM, first compound 0.003 µM) was 2.74% and the viability, T/C (second compound 0.0316 µM, first compound 0.00949 µM) was 0.21%. The viability, T/C (second compound 0.0316 µM, first compound 0.03 µM) was 0.23%, the viability, T/C (second compound 0.0316 µM, first compound 0.0949 µM) was 0.18% and the viability, T/C (second compound 0.0316 µM, first compound 0.3 µM) was 1.15%. For the same compound, the viability, T/C (second compound 0.1 µM, first compound 0.000949 µM) was 15.1%, the viability, T/C (second compound 0.1 µM, first compound 0.003 µM) was 0.3% and the viability, T/C (second compound 0.1 µM, first compound 0.00949 µM) was 0.24%. For the same compound, the viability, T/C (second compound 0.1 µM, first compound 0.03 µM) was 0.21%, the viability, T/C (second compound 0.1 µM, first compound 0.0949 µM) was 0.18% and the viability, T/C (second compound 0.1 µM, first compound 0.3 µM) was 1.03%. The viability, T/C (second compound 0.316 µM, first compound 0.000949 µM) was 16.6%, the viability, T/C (second compound 0.316 µM, first compound 0.003 µM) was 0.88% and the viability, T/C (second compound 0.316 µM, first compound 0.00949 µM) was 0.24%. The viability, T/C (second compound 0.316 µM, first compound 0.03 µM) was 0.19%, the viability, T/C (second compound 0.316 µM, first compound 0.0949 µM) was 0.15% and the viability, T/C (second compound 0.316 µM, first compound 0.3 µM) was 0.15%. It also gave a viability, T/C (second compound 1 µM, first compound 0.000949 µM) of 15.8%, a viability, T/C (second compound 1 µM, first compound 0.003 µM) of 0.29% and a viability, T/C (second compound 1 µM, first compound 0.00949 µM) of 1.19%. The viability, T/C (second compound 1 µM, first compound 0.03 µM) was 0.21%, the viability, T/C (second compound 1 µM, first compound 0.0949 µM) was 0.19% and the viability, T/C (second compound 1 µM, first compound 0.3 µM) was 1.63%. It also gave a viability, T/C (second compound 3.16 µM, first compound 0.000949 µM) of 14.2%, a viability, T/C (second compound 3.16 µM, first compound 0.003 µM) of 1% and a viability, T/C (second compound 3.16 µM, first compound 0.00949 µM) of 1.37%. It also gave a viability, T/C (second compound 3.16 µM, first compound 0.03 µM) of 0.21%, a viability, T/C (second compound 3.16 µM, first compound 0.0949 µM) of 0.2% and a viability, T/C (second compound 3.16 µM, first compound 0.3 µM) of 0.39%. It also gave a viability, T/C (second compound 10 µM, first compound 0.000949 µM) of 14.7%, a viability, T/C (second compound 10 µM, first compound 0.003 µM) of 1.3% and a viability, T/C (second compound 10 µM, first compound 0.00949 µM) of 0.27%. The viability, T/C (second compound 10 µM, first compound 0.03 µM) was 0.31%, the viability, T/C (second compound 10 µM, first compound 0.0949 µM) was 0.26% and the viability, T/C (second compound 10 µM, first compound 0.3 µM) was 0.15%.
In the case of `C=CC(=O)Nc1cc(Nc2nccc(-c3cn(C)c4ccccc34)n2)c(OC)cc1N(C)CCN(C)C`, the viability, T/C (compound 0.000949 µM) is reported as 98.3% and 114%, the viability, T/C (compound 0.003 µM) is reported as 88.5% and 85.6% and the viability, T/C (compound 0.00949 µM) is reported as 96.7% and 88.3%. For the same compound, the viability, T/C (compound 0.03 µM) was 101% and 96.3%, the viability, T/C (compound 0.0949 µM) was 93.5% and 100% and the viability, T/C (compound 0.3 µM) was 80.8% and 90%. It also gave an IC50 (curve of compound) of over 300 nM.
With `Nc1ccccc1NC(=O)c1ccc(CNC(=O)OCc2cccnc2)cc1` the viability, T/C (compound 0.0316 µM) was 105% and 91.2%, the viability, T/C (compound 0.1 µM) was 98.8% and 108% and the viability, T/C (compound 0.316 µM) was 71.4% and 47.5%. For the same compound, the viability, T/C (compound 1 µM) was 40.7% and 27%, the viability, T/C (compound 3.16 µM) was 6.65% and 4.95% and the viability, T/C (compound 10 µM) was 0.46% and 0.13%. For the same compound, the IC50 (curve of compound) was 674 nM and 305 nM.
